This assay has as its system Tylonycteris bat coronavirus HKU4. Particulars: at 100 µM.

The structures appear in SMILES notation.

One may read the inhibition as how much of the control response was suppressed. Low readings indicate little suppression, high ones strong suppression.

`CC(C)(C)NC(=O)C(c1cccnc1)N(C(=O)c1n[nH]c2ccccc12)c1ccc(F)cc1` (stereo unspecified) had an inhibition of 14%.
Under `CC(C)(C)NC(=O)C(c1cccnc1)N(C(=O)c1ccco1)C1CC2CCC1C2` (stereo unspecified) stands 16%; under `CC(C)(C)NC(=O)C(c1ccsc1)N(C(=O)c1ccc(C(F)(F)F)nc1)C1CC1` (stereo unspecified), 12%; under `CC(C)(C)NC(=O)C(c1ccncc1)N(C(=O)c1ccco1)c1ccc(C(C)(C)C)cc1` (stereo unspecified), 28%.
Under `CC(C)(C)NC(=O)C(c1cccnc1)N(C(=O)c1ncc[nH]1)c1ccc(C(C)(C)C)cc1` (stereo unspecified) stands 22%.
The molecule `CC(C)c1ccc(N(C(=O)Cc2cccc3ccccc23)C(C(=O)NC(C)(C)C)c2ccsc2)cc1` (stereo unspecified) registered an inhibition of 13%.
On to `CCC(=O)Nc1ccc(N(C(=O)Cn2cnc3ccccc32)C(C(=O)NC(C)(C)C)c2ccsc2)cc1` (stereo unspecified), for which the inhibition worked out at 68%.
Consider `CC(C)(C)NC(=O)C(c1ccsc1)N(C(=O)c1ccco1)C1CC1` (stereo unspecified), for which the inhibition was determined as 18%.
With `CC(C)c1ccc(N(C(=O)Cc2c[nH]c3ccccc23)C(C(=O)NC(C)(C)C)c2cccnc2)cc1` (stereo unspecified) the figure was 78%; with `CC(C)(C)NC(=O)C(c1ccsc1)N(C(=O)c1ccc(C#N)cc1)c1ccc(C(C)(C)C)cc1` (stereo unspecified), 18%; with `CC(C)(C)NC(=O)C(c1cccc(F)c1)N(C(=O)Cn1nnc2ccccc21)C12CC3CC(CC(C3)C1)C2` (stereo unspecified), 14%.
Under `Cn1cnc(C(=O)N(c2ccc(C(C)(C)C)cc2)C(C(=O)NC(C)(C)C)c2cccnc2)c1` (stereo unspecified) stands 60%.
With `CC(C)(C)NC(=O)C(c1cccnc1)N(C(=O)c1cccnc1)c1ccc(C(C)(C)C)cc1` (stereo unspecified) the figure was 13%; with `CC(C)(C)NC(=O)C(c1cccnc1)N(C(=O)c1ccco1)c1ccc(-c2c(F)cccc2F)cc1` (stereo unspecified), 23%; with `CC(C)c1ccc(N(C(=O)c2cccc3c2CCCC3)C(C(=O)NC(C)(C)C)c2cccnc2)cc1` (stereo unspecified), 25%.
`CC(C)(C)NC(=O)C(c1cccnc1)N(C(=O)c1ccc(C(F)(F)F)o1)c1ccc(C(C)(C)C)cc1` (stereo unspecified): the inhibition turned out to be 16%.
Under `CC(C)(C)NC(=O)C(c1ccsc1)N(C(=O)c1ccco1)c1ccc(F)cc1` (stereo unspecified) stands 16%.
Under `CC(C)(C)NC(=O)C(c1cccnc1)N(C(=O)c1ccco1)c1ccc(NS(=O)(=O)c2ccccc2)cc1` (stereo unspecified) stands 16%; under `CC(C)(C)NC(=O)C(c1cccnc1)N(C(=O)c1ccc(F)cc1)c1ccc(C(C)(C)C)cc1` (stereo unspecified), 21%; under `CC(C)(C)NC(=O)C(c1cccnc1)N(C(=O)Cc1ccco1)C1CC1` (stereo unspecified), 43%.
The molecule `CC(C)c1ccc(N(C(=O)c2ccco2)C(C(=O)NC(C)(C)C)c2cccnc2)cc1` (stereo unspecified) had an inhibition of 34%.
With `CC(C)(C)NC(=O)C(c1cccnc1)N(C(=O)c1cc[nH]n1)c1ccc(C(C)(C)C)cc1` (stereo in doubt; 53B) the figure was 28%; with `CC(C)(C)NC(=O)C(c1cccnc1)N(C(=O)c1ccsc1)c1ccc(C(C)(C)C)cc1` (stereo unspecified), 16%.
With `CC(C)(C)NC(=O)C(c1cccnc1)N(C(=O)c1ccco1)c1ccc(F)cc1` (stereo unspecified) the figure was 41%; with `CC(C)(C)NC(=O)C(c1cccnc1)N(C(=O)c1ccco1)c1ccc(NS(C)(=O)=O)cc1` (stereo unspecified), 12%; with `CC(C)(C)NC(=O)C(c1cccnc1)N(C(=O)c1ccccc1O)c1ccc(C(C)(C)C)cc1` (stereo unspecified), 11%.
`CC(C)(C)NC(=O)C(c1ccsc1)N(C(=O)Cn1nnc2ccccc21)c1ccc(NC(=O)C2CCCCC2)cc1` (stereo unspecified) registered an inhibition of 21%.
`CC(C)(C)NC(=O)C(c1ccsc1)N(C(=O)Cn1nnc2ccccc21)c1ccc(NC(=O)c2ccccc2)cc1` (stereo unspecified) showed an inhibition of 79%.
As to `COc1ncc(-c2ccc(N(Cc3ccsc3)C(=O)Cn3nnc4ccccc43)cc2)cn1`, the inhibition was 83%.
Molecule `CC(C)(C)NC(=O)C(c1c[nH]cn1)N(C(=O)c1ccco1)c1ccc(C(C)(C)C)cc1` (stereo unspecified) gave an inhibition of 9%.
For the molecule `CC(C)(C)NC(=O)C(c1cccnc1)N(C(=O)c1ccc(Cl)o1)c1ccc(C(C)(C)C)cc1` (stereo unspecified), the inhibition stood at 12%.
Under `O=C(NCc1ccccc1)C(c1cccc(F)c1)N(C(=O)Cn1nnc2ccccc21)C12CC3CC(CC(C3)C1)C2` (stereo unspecified) stands 16%; under `CC(C)(C)NC(=O)[C@@H](c1cccnc1)N(C(=O)c1c[nH]cn1)c1ccc(C(C)(C)C)cc1`, 93%; under `O=C(Cn1nnc2ccccc21)N(Cc1ccsc1)c1ccc(-c2cccnc2)cc1`, 90%.
Under `CC(C)(C)OC(=O)n1cccc1-c1ccc(N(Cc2ccsc2)C(=O)Cn2nnc3ccccc32)cc1` stands 31%.
`CC(C)(C)NC(=O)C(c1cccnc1)N(C(=O)c1cnco1)c1ccc(C(C)(C)C)cc1` (stereo unspecified) displayed an inhibition of 96%.
Under `CC(=O)Nc1ccc(N(C(=O)Cn2nnc3ccccc32)C(C(=O)NCc2ccccc2)c2cccc(F)c2)cc1` (stereo unspecified) stands 32%.
`CC(C)(C)NC(=O)C(c1cccnc1)N(C(=O)c1cc[nH]n1)c1ccc(C(C)(C)C)cc1` (stereo in doubt; 124B): the inhibition was 17%.
Turning to `CC(C)(C)NC(=O)C(c1cccnc1)N(C(=O)c1ccc(O)cc1)c1ccc(C(C)(C)C)cc1` (stereo unspecified), the inhibition was found to be 11%.
Under `CC(C)(C)NC(=O)C(c1cccnc1)N(C(=O)c1ccco1)c1ccc(-c2ccccc2)cc1` (stereo unspecified) stands 22%; under `CC(=O)Nc1ccc(N(C(=O)Cn2cnc3ccccc32)C(C(=O)NC(C)(C)C)c2ccsc2)cc1` (stereo unspecified), 14%; under `CC(C)(C)NC(=O)C(c1cccnc1)N(C(=O)c1ncccn1)c1ccc(C(C)(C)C)cc1` (stereo unspecified), 13%.
With `CC(C)C(=O)Nc1ccc(N(C(=O)Cn2nnc3ccccc32)C(C(=O)NCc2ccccc2)c2cccc(F)c2)cc1` (stereo unspecified) the figure was 62%; with `CC(C)(C)NC(=O)C(c1cccnc1)N(C(=O)c1cccc2c1CCCC2)c1ccc(OCF)cc1` (stereo unspecified), 21%.
Molecule `CC(C)(C)NC(=O)C(c1ccsc1)N(C(=O)Cn1nnc2ccccc21)c1ccc(NS(C)(=O)=O)cc1` (stereo unspecified) had an inhibition of 27%.
Under `CC(C)(C)NC(=O)C(c1ccsc1)N(C(=O)Cn1nnc2ccccc21)c1ccc(N)cc1` (stereo unspecified) stands 64%; under `CC(C)(C)NC(=O)C(c1ccsc1)N(C(=O)Cn1cnc2ccccc21)c1ccc(N)cc1` (stereo unspecified), 18%; under `CCC(C)c1ccc(N(C(=O)c2ccco2)[C@@H](C(=O)NC(C)(C)C)c2cccnc2)cc1` (stereo partly specified), 20%.
Under `CC(C)(C)NC(=O)C(c1ccsc1)N(C(=O)c1ccco1)c1ccc(C(C)(C)C)cc1` (stereo unspecified) stands 19%.
Molecule `O=C(Nc1ccc(N(Cc2ccsc2)C(=O)Cn2nnc3ccccc32)cc1)C1CCCCC1` displayed an inhibition of 88%.
For the molecule `CC(C)(C)NC(=O)C(c1ccsc1)N(C(=O)Cc1cccc2ccccc12)C1CC1` (stereo unspecified), the inhibition is 22%.
With `CC(C)(C)NC(=O)C(c1cccnc1)N(C(=O)c1cccc2c1CCCC2)c1ccc(F)cc1` (stereo unspecified) the figure was 22%; with `CC(C)(C)NC(=O)C(c1cccnc1)N(C(=O)Cc1c[nH]c2ccccc12)c1ccc(OCF)cc1` (stereo unspecified), 52%.
For `CC(C)(C)NC(=O)C(c1cccnc1)N(C(=O)Cc1cccnc1)c1ccc(OCF)cc1` (stereo unspecified), the inhibition was 18%.
Under `CC(=O)Nc1ccc(N(C(=O)Cn2cc([Si](C)(C)C)nn2)C(C(=O)NC(C)(C)C)c2ccsc2)cc1` (stereo unspecified) stands 20%.
Turning to `CC(C)(C)NC(=O)C(c1cccc(F)c1)N(C(=O)Cn1nnc2ccccc21)C1CC2CCC1C2` (stereo unspecified), the inhibition was 15%.

For the origin of these results see ChEMBL document CHEMBL3603819, “Targeting zoonotic viruses: Structure-based inhibition of the 3C-like protease from bat coronavirus HKU4--The likely reservoir host to the human coronavirus that causes Middle East Respiratory Syndrome (MERS)” (Bioorg Med Chem, 2015).
